Data on ten compounds can be found in patent publication US7056924B2, “Substituted heterocyclic compounds” (CV Therapeutics, Inc., priority 2002, dated 2006).

This assay has as its system Palmitoyl CoA oxidation in rat heart mitochondria. Nature of the assay: Mitochondrial assay: Palmitoyl CoA oxidation. The format is biochemical. The settings on record: 16 microM 1-C14 palmitoyl CoA, 15 min at 30° C., read-out: Effect of Compounds of the Invention on Palmitoyl CoA Oxidation (IC50). Here is the method: Rat heart mitochondria were isolated by the method of Nedergard and Cannon (Methods in Enzymol. 55, 3, 1979).
Palmitoyl CoA oxidation—The Palmitoyl CoA oxidation was carried out in a total volume of 100 micro liters containing the following agents: 110 mM KCl, 33 mM Tris buffer at pH 8, 2 mM KPi, 2 mM MgCl2, 0.1 mM EDTA, 14.7 microM defatted BSA, 0.5 mM malic acid, 13 mM carnitine, 1 mM ADP, 52 micrograms of mitochondrial protein, and 16 microM 1-C14 palmitoyl CoA (Sp. Activity 60 mCi/mmole; 20 microCi/ml, using 5 microliters per assay). The compounds of this invention were added in a DMSO solution at the following concentrations: 100 micro molar, 30 micro molar, and 3 micro molar. In each assay, a DMSO control was used. After 15 min at 30° C., the enzymatic reaction was centrifuged (20,000 g for 1 min), and 70 microliters of the supernatant was added to an activated reverse phase silicic acid column (approximately 0.5 ml of silicic acid). The column was eluted with 2 ml of water, and 0.5 ml of the eluent was used for scintillation counting to determine the amount of C^14 trapped as C^14 bicarbonate ion.
The term IC50 denotes the midpoint of a concentration-inhibition curve. “(2R)-3-[(2S)-2-methyl-4-({5-[2-chlorophenyl]isoxazol-3-yl}methyl)piperazinyl]-1-(2-methylbenzothiazol-5-yloxy)propan-2-ol”: the IC50 came to 0.6 µM.
The same measure for “(2R)-3-(2-methylbenzothiazol-5-yloxy)-1-[4-({5-[4-(trifluoromethyl)phenyl](1,3,4-oxadiazol-2-yl)}methyl)piperazinyl]propan-2-ol”: 4.8 µM; for “(2R)-3-((2S)-4-{[5-(4-methoxyphenyl)(1,3,4-oxadiazol-2-yl)]methyl}-2-methylpiperazinyl)-1-(2-methylbenzothiazol-5-yloxy)propan-2-ol”: 1.24 µM.
The same measure for `Cc1nc2cc(OC[C@H](O)CN3CCN(Cc4nc5cc(-c6ccccc6)ccc5o4)CC3)ccc2s1` [(2R)-3-(2-methylbenzothiazol-5-yloxy)-1-{4-[(5-phenylbenzoxazol-2-yl)methyl]piperazinyl}propan-2-ol]: 3.6 µM; for “(2R)-1-((2S)-2-methyl-4-{[5-(4-phenylphenyl)(1,3,4-oxadiazol-2-yl)]methyl}piperazinyl)-3-(2-methylbenzothiazol-5-yloxy)propan-2-ol”: 1.18 µM; for “(2R)-1-(4-{[5-(2-chlorophenyl)(1,2,4-oxadiazol-3-yl)]methyl}piperazinyl)-3-(2-methylbenzothiazol-5-yloxy)propan-2-ol”: 1.14 µM.
For the compound “(2R)-1-[(2S)-4-({5-[4-(dimethylamino)phenyl](1,3,4-oxadiazol-2-yl)}methyl)-2-methylpiperazinyl]-3-(2-methylbenzothiazol-5-yloxy)propan-2-ol”, the IC50 amounted to 1.48 µM.
For the compound “(2R)-3-(2-methylbenzothiazol-5-yloxy)-1-(4-{[5-(4-phenylphenyl)(1,3,4-oxadiazol-2-yl)]methyl}piperazinyl)propan-2-ol”, the half-maximal inhibitory concentration (IC50) amounted to 0.99 µM.
The same measure for “(2R)-1-(4-{[5-(4-methoxyphenyl)(1,3,4-oxadiazol-2-yl)]methyl}piperazinyl)-3-(2-methylbenzothiazol-5-yloxy)propan-2-ol”: 8.9 µM; for “(2R)-3-{(3S)-3-methyl-4-[(3-(4-methoxyphenyl)isoxazol-5-yl)methyl]piperazinyl}-1-(2-methylbenzothiazol-5-yloxy)propan-2-ol”: 0.74 µM.
